In patent US20200263231A1, “Fluorogenic dyes for high sensitivity DNA detection” (LIFE TECHNOLOGIES CORPORATION, priority 2016, published 2020):

Legend:
dsDNA versus ssDNA = assay: In vitro selectivity dsDNA versus ssDNA; assay type: binding
Procedure: Six compounds (2, 34, 35, 41, 42, and 48) were characterized in in vitro selectivity experiments for double-stranded DNA (dsDNA) versus single-stranded DNA (ssDNA). These compounds were compared against comparative compounds R^1 and R^2.
For each individual compound, the dsDNA and ssDNA fluorescence emission at 10 ng/μL was compared to evaluate in vitro selectivity for dsDNA/ssDNA, as shown in FIG. 4.
Further in vitro selectivity experiments for double-stranded DNA (dsDNA) versus single-stranded DNA (ssDNA) were performed using the methods outlined in Example 3 to compare compounds 2, 34, 41, 42, and 48 to comparative compounds R1 and R2.
For each individual compound, the dsDNA and ssDNA fluorescence emission at 10 ng/μL was calculated to estimate in vitro selectivity, as shown in FIG. 7.

ssDNA = assay: Microplate fluorescence when bound to ssDNA; assay type: binding; conditions: for Ratio to R1, fluorescent emission with ssDNA / fluorescent emission with ssDNA: 500 ng/mL ssDNA; for ssDNA emission: text says 10 ng/μL
Procedure: The compounds from FIG. 1 were also characterized with respect to their fluorescence enhancement when bound to ssDNA. The compounds from FIG. 1, R1 and R2 were tested in triplicate. 190 μL of 1 μM compound in 1× Tris-EDTA pH7.5, 0.01% CHAPS was added to 10 μL of 4 different concentrations of ssDNA in wells of 96 well Costar black, clear bottom microplates. Plates were read on a SpectraFluor multifunction microplate reader (Tecan) at 491 nm excitation and 520 nm emission. Fluorescence data with ssDNA are shown in FIG. 3 for the different tested compounds.
Next, the compounds were compared for their fluorescence enhancement when bound to ssDNA as described in Example 1. Fluorescence data with ssDNA are shown in FIG. 6 for the different tested compounds.

[1] = UV/VIS absorption spectra; assay type: physicochemical; conditions: 10 μM compound in 50 mM potassium phosphate buffer (pH 7.0)
Procedure: The UV/VIS absorption spectra were obtained with 10 μM compound solution in 50 mM potassium phosphate buffer (pH 7.0) in a final volume of 3 mL. Measurements were carried out using a Lambda 245 spectrophotometer from Perkin Elmer.

calf thymus DNA = assay: Fluorescence emission and enhancement of compounds bound to calf thymus DNA; assay type: binding; conditions: 0.8 μM compound with 500 ng/ml calf thymus DNA in TE buffer; for Emission Max: excited at 488 nm; for Fluorescence Enhancement: emission area 500-715 nm compared to compound 1, defined as 1000-fold
Procedure: Compounds 1-65 were prepared and their fluorescence absorption and emission characteristics were measured. Intrinsic fluorescence of the compounds only (without DNA) was negligible. Emission spectra for the compounds bound to dsDNA were obtained by incubating 0.8 μM compound with 500 ng/ml calf thymus DNA in TE buffer (10 mM Tris-HCl, pH 7.5, 1 mM EDTA) in a final volume of 3 ml. Measurements were made using PerkinElmer LS 55 (F-11) Fluorescence spectrometer. Samples were excited at 488 nm and fluorescence emission was measured with emission slit widths of 2.5 nm. Absorption maxima were determined according to standard techniques.
Fluorescence enhancement measurements of the compounds were obtained by incubating 0.8 μM compound with 500 ng/ml calf thymus DNA with compounds at a final concentration of 0.8 μM in TE buffer. Compound 1 was used as an internal standard to control for variability (e.g., in excitation light intensity). The area-under-curve of fluorescence emission spectra from 500 nm to 715 nm was calculated, and compared to that of compound 1, which was defined as having 1000-fold fluorescence enhancement relative to fluorescence of the compound alone.

dsDNA = assay: Microplate fluorescence when bound to dsDNA; assay type: binding; conditions: 500 ng/mL dsDNA
Procedure: Compounds were tested in triplicate for fluorescence enhancement when bound to dsDNA. 190 μL of 1 μM compound in 1× Tris-EDTA, pH 7.5, 0.01% CHAPS was added to 10 μL of 4 different concentrations of dsDNA (0, 25 ng/mL, 200 ng/mL, and 500 ng/mL) in wells of 96 well Costar black, clear bottom microplates. Plates were read on a SpectraFluor multifunction microplate reader (Tecan) at 491 nm excitation and 520 nm emission.
Compounds were tested for fluorescence enhancement when bound to dsDNA as described in Example 3. Fluorescence data with dsDNA are shown in FIG. 5 for the different tested compounds.

[2] = Example 3, Table 3, 1 μM compound, 491 nm excitation, 520 nm emission
[3] = Example 3, Table 4, FIG. 4 says 500 ng/mL
[4] = Example 4, Table 7, FIG. 7 says 500 ng/mL
[5] = Example 3, Table 2, 1 μM compound, 491 nm excitation, 520 nm emission

Row | Absorbance Max [1] [nm] | Emission Max (calf thymus DNA) [nm] | SMILES | ratio of dsDNA emission versus ssDNA emission (dsDNA versus ssDNA; Example 3, Table 4) | ratio of dsDNA emission versus ssDNA emission (dsDNA versus ssDNA; Example 4, Table 7) | Ratio to R1, fluorescent emission with ssDNA (ssDNA; Example 3, Table 3) | fluorescent emission with ssDNA (ssDNA; [2]) | ssDNA emission (ssDNA; [3]) | fluorescent emission with ssDNA (ssDNA; Example 4, Table 6) | ssDNA emission (ssDNA; [4]) | Fluorescence Enhancement (calf thymus DNA) [fold] | Ratio to R1, fluorescent emission with dsDNA (dsDNA; Example 3, Table 2) | fluorescent emission with dsDNA (dsDNA; [5]) | Ratio to R1, fluorescent emission with dsDNA (dsDNA; Example 4, Table 5) | fluorescent emission with dsDNA (dsDNA; Example 4, Table 5)
1 | 488 | 517 | CCCCN(CCCN(C)C)C1=CC(=Cc2sc3ccccc3[n+]2C)c2ccc(OC)cc2N1c1ccccc1.[I-] [Compound 34] | 4.1 | 4.8 | 2.4 | 2578 | 2578 | 2603 | 2603 | 1071 | 1.92 | 10452 | 2.1 | 12434
2 | 501 | 523 | CCCN(CCC[N+](C)(C)C)C1=CC(=Cc2sc3ccccc3[n+]2C)c2ccccc2N1c1ccccc1.[Cl-].[I-] [Compound 2] | 5.4 | 5.9 | 1.6 | 1773 | 1773 | 1767 | 1767 | 964 | 1.74 | 9494 | 1.8 | 10339
3 | 493 | 517 | CCCN(CCCN(C)C)C1=CC(=Cc2sc3ccccc3[n+]2C)c2ccc(OC)cc2N1c1ccccc1.[I-] [Compound 41] | 3.5 | 4.1 | 2.7 | 2878 | 2878 | 2814 | 2814 | 1020 | 1.83 | 9936 | 1.9 | 11424
4 | 494 | 519 | CCCN(CCC[N+](C)(C)C)C1=CC(=Cc2sc3ccccc3[n+]2C)c2ccc(OC)cc2N1c1ccccc1.[I-].[I-] [Compound 42] | 3.6 | 4.4 | 2.8 | 3017 | 3017 | 3078 | 3078 | 1070 | 2.00 | 10860 | 2.3 | 13580

Row | SMILES | Absorbance Max [1] [nm] | Emission Max (calf thymus DNA) [nm] | ratio of dsDNA emission versus ssDNA emission (dsDNA versus ssDNA; Example 3, Table 4) | ratio of dsDNA emission versus ssDNA emission (dsDNA versus ssDNA; Example 4, Table 7) | Ratio to R1, fluorescent emission with ssDNA (ssDNA; Example 3, Table 3) | fluorescent emission with ssDNA (ssDNA; [2]) | ssDNA emission (ssDNA; [3]) | fluorescent emission with ssDNA (ssDNA; Example 4, Table 6) | ssDNA emission (ssDNA; [4]) | Fluorescence Enhancement (calf thymus DNA) [fold] | Ratio to R1, fluorescent emission with dsDNA (dsDNA; Example 3, Table 2) | fluorescent emission with dsDNA (dsDNA; [5]) | Ratio to R1, fluorescent emission with dsDNA (dsDNA; Example 4, Table 5) | fluorescent emission with dsDNA (dsDNA; Example 4, Table 5)
5 | CCCCN(CCC[N+](C)(C)C)C1=CC(=Cc2sc3ccccc3[n+]2C)c2ccc(OC)cc2N1c1ccccc1.[I-].[I-] [Compound 35] | 489 | 518 | 4.4 | – | 2.3 | 2515 | 2515 | – | – | 1069 | 2.05 | 11136 | – | –
6 | CCN(CCCN(C)C)C1=CC(=Cc2sc3ccccc3[n+]2C)c2ccc(OC)cc2N1c1ccccc1.[I-] [Compound 48] | 489 | 520 | 3.4 | 4.6 | 2.5 | 2739 | 2739 | 2477 | 2477 | 1016 | 1.72 | 9350 | 1.9 | 11400
